# Laboratory results published in US20090176817A1, “Method of Treatment of Diarrhea-Predominant Irritable Bowel Syndrome in a Subject” (priority 2005, published 2009).
# System: diarrhea-predominant IBS subjects
# Experiment: Study S241.3.009: weekly diary questions on adequate relief
# Format: in vivo, human
# Settings: ITT, 2 mg TID; for Number of months a subject was a responder: Three months (IBS symptoms) / Number of months a subject was a responder: Two months (Abdominal pain/discomfort) / Number of months a subject was a responder: Two months (Abnormal bowel habits) / Number of months a subject was a responder: Two months (IBS symptoms) / Number of months a subject was a responder: Zero months (Abdominal pain/discomfort) / Number of months a subject was a responder: Zero months (Abnormal bowel habits) / Number of months a subject was a responder: Zero months (IBS symptoms) / Number of months a subject was a responder: One month (Abdominal pain/discomfort) / Number of months a subject was a responder: One month (Abnormal bowel habits) / Number of months a subject was a responder: One month (IBS symptoms) / Number of months a subject was a responder: Three months (Abdominal pain/discomfort) / Number of months a subject was a responder: Three months (Abnormal bowel habits): Months 1 to 3, monthly LOCF; for Overall responder rate, adequate relief of IBS symptoms / Overall responder rate, adequate relief of abdominal pain/discomfort / Overall responder rate, adequate relief of abnormal bowel habits: 26-week treatment period, observed case
# Description: Study S241.3.009 was a Phase III, a double-blind, placebo-controlled, randomized, multinational study to investigate the safety and efficacy of 2 mg TID of cilansetron over 26 weeks in diarrhea-predominant IBS subjects. The study was conducted in 146 multinational study centers. A total of 1307 subjects consented to participate, and 806 subjects were randomized. A total of 792 subjects were analyzed for efficacy and 799 subjects were analyzed for safety. Diagnosis and main criteria for inclusion were IBS subjects satisfying the Rome I criteria (1992); the diarrhea-predominant sub-population of the Rome II criteria; and a minimum abdominal pain/discomfort, stool frequency and consistency determined during the run-in period. Subjects were treated with cilansetron 2 mg tablets given orally TID or matching placebo tablets given orally TID for 26 weeks.
# The primary efficacy parameter was the overall response rate for IBS symptoms, based on the weekly question concerning adequate relief of IBS symptoms (abdominal pain/discomfort, abnormal bowel habits) over the 26 weeks period. A responder was a subject who responded “yes” at least 50% of the time during his/her treatment period, with minimum treatment duration of four weeks. The two main secondary efficacy parameters were overall responder rate based on the weekly question on adequate relief of abdominal pain/discomfort and abnormal bowel habits during the 26-week treatment period. The onset of action of cilansetron was also examined using daily diary data (stool frequency, and ratings of urgency and severity) during the initial 8 weeks of trial participation. An additional key secondary efficacy parameter was the number of months (one month equals four weeks) up to six months (24-weeks) that a subject was a responder for IBS symptoms, where a responder was defined as a subject who answered the weekly question with “yes” at least twice for that month. The responder rate for the weekly diary questions on adequate relief at each month and all months, the adequate relief rate, the number of subjects with adequate relief by week, daily diary questions, IBS-QOL scores, and the interruption of activities were also assessed. Safety was evaluated by physical examination, ECG, vital signs, laboratory evaluations, concomitant medications, and AEs.
# Studies S24 1.3.OO6, S24 1.3.0 1 1, and S24 1.3.009 used the following efficacy measurements: • The subjects answered the following three questions with “yes” or “no” using a phone diary at the end of each week: • a) During the last week, did you experience adequate relief of your IBS symptoms, such as abdominal pain, abdominal discomfort, abnormal bowel habits? • b) During the last week, did you experience adequate relief of your abdominal pain and/or discomfort? • c) During the last week, did you experience adequate relief of your abnormal bowel habits? • The subjects rated the following symptoms using the phone diary at the end of each day: • abdominal pain/discomfort (five-point scale); • stool consistency (seven-point Bristol Stool Scale); • stool frequency (number of bowel movements each day); • urgency (five-point scale); • straining (yes or no); • feeling of incomplete defecation (yes or no); • bloating or feeling of abdominal distension (five-point scale). • In Studies S241 A006 and S241.3.009, subjects completed the IBS-QOL Survey at Baseline (Day 1) and at the end of treatment. In Study S24 1.3.0 1 1, subjects completed the IBS-QOL Survey at Baseline (Day 1), at the end of the three-month treatment period, and at the end of rerandomized treatment.
# In all three pivotal efficacy studies, the primary and main secondary efficacy parameters were based on the weekly diary questions on adequate relief and included the following: • 1. Number of months (one month equals four weeks) that a subject was a responder for the weekly diary questions on adequate relief. […]
# [1] = Baseline severity of IBS: non-severe
# [2] = Baseline severity of IBS: severe
# [3] = Duration of IBS: >24 months to ≦48 months, monthly LOCF imputation
smiles,measurement,setting,value
"Cc1nccn1C[C@H]1CCc2c(c3cccc4c3n2CCC4)C1=O [Cilansetron, (R)-(−)-4,5,6,8,9,10-hexahydro-10-[(2-methyl-1H-imidazol-1-yl)methyl]-11H-pyrido-[3,2,1-jk]-carbazol-11-one]",Number of months a subject was a responder: Three months (IBS symptoms),Baseline BMI: <30 kg/m^2,131 (40) n (%)
same,Number of months a subject was a responder: Two months (Abdominal pain/discomfort),Baseline BMI: <30 kg/m^2,58 (18) n (%)
same,Number of months a subject was a responder: Two months (Abnormal bowel habits),Baseline BMI: <30 kg/m^2,69 (21) n (%)
same,Number of months a subject was a responder: Two months (IBS symptoms),Baseline BMI: <30 kg/m^2,64 (19) n (%)
same,Number of months a subject was a responder: Zero months (Abdominal pain/discomfort),Baseline BMI: <30 kg/m^2,82 (25) n (%)
same,Number of months a subject was a responder: Zero months (Abnormal bowel habits),Baseline BMI: <30 kg/m^2,78 (24) n (%)
same,Number of months a subject was a responder: Zero months (IBS symptoms),Baseline BMI: <30 kg/m^2,86 (26) n (%)
same,"Overall responder rate, adequate relief of IBS symptoms",Baseline BMI: ≧30 kg/m^2,27 (42) n (%)
same,"Overall responder rate, adequate relief of abdominal pain/discomfort",Baseline BMI: ≧30 kg/m^2,32 (49) n (%)
same,"Overall responder rate, adequate relief of abnormal bowel habits",Baseline BMI: ≧30 kg/m^2,33 (51) n (%)
same,Number of months a subject was a responder: One month (Abdominal pain/discomfort),Baseline BMI: ≧30 kg/m^2,10 (15) n (%)
same,Number of months a subject was a responder: One month (Abnormal bowel habits),Baseline BMI: ≧30 kg/m^2,10 (15) n (%)
same,Number of months a subject was a responder: One month (IBS symptoms),Baseline BMI: ≧30 kg/m^2,6 (9) n (%)
same,Number of months a subject was a responder: Three months (Abdominal pain/discomfort),Baseline BMI: ≧30 kg/m^2,20 (31) n (%)
same,Number of months a subject was a responder: Three months (Abnormal bowel habits),Baseline BMI: ≧30 kg/m^2,21 (32) n (%)
same,Number of months a subject was a responder: Three months (IBS symptoms),Baseline BMI: ≧30 kg/m^2,19 (29) n (%)
same,Number of months a subject was a responder: Two months (Abdominal pain/discomfort),Baseline BMI: ≧30 kg/m^2,12 (18) n (%)
same,Number of months a subject was a responder: Two months (Abnormal bowel habits),Baseline BMI: ≧30 kg/m^2,14 (22) n (%)
same,Number of months a subject was a responder: Two months (IBS symptoms),Baseline BMI: ≧30 kg/m^2,16 (25) n (%)
same,Number of months a subject was a responder: Zero months (Abdominal pain/discomfort),Baseline BMI: ≧30 kg/m^2,23 (35) n (%)
same,Number of months a subject was a responder: Zero months (Abnormal bowel habits),Baseline BMI: ≧30 kg/m^2,20 (31) n (%)
same,Number of months a subject was a responder: Zero months (IBS symptoms),Baseline BMI: ≧30 kg/m^2,24 (37) n (%)
same,"Overall responder rate, adequate relief of IBS symptoms",[1],149 (61) n (%)
same,"Overall responder rate, adequate relief of abdominal pain/discomfort",[1],150 (61) n (%)
same,"Overall responder rate, adequate relief of abnormal bowel habits",[1],161 (65) n (%)
same,Number of months a subject was a responder: One month (Abdominal pain/discomfort),[1],42 (17) n (%)
same,Number of months a subject was a responder: One month (Abnormal bowel habits),[1],31 (13) n (%)
same,Number of months a subject was a responder: One month (IBS symptoms),[1],37 (15) n (%)
same,Number of months a subject was a responder: Three months (Abdominal pain/discomfort),[1],102 (41) n (%)
same,Number of months a subject was a responder: Three months (Abnormal bowel habits),[1],104 (42) n (%)
same,Number of months a subject was a responder: Three months (IBS symptoms),[1],95 (39) n (%)
same,Number of months a subject was a responder: Two months (Abdominal pain/discomfort),[1],41 (17) n (%)
same,Number of months a subject was a responder: Two months (Abnormal bowel habits),[1],54 (22) n (%)
same,Number of months a subject was a responder: Two months (IBS symptoms),[1],51 (21) n (%)
same,Number of months a subject was a responder: Zero months (Abdominal pain/discomfort),[1],61 (25) n (%)
same,Number of months a subject was a responder: Zero months (Abnormal bowel habits),[1],57 (23) n (%)
same,Number of months a subject was a responder: Zero months (IBS symptoms),[1],63 (26) n (%)
same,"Overall responder rate, adequate relief of IBS symptoms",[2],84 (57) n (%)
same,"Overall responder rate, adequate relief of abdominal pain/discomfort",[2],88 (59) n (%)
same,"Overall responder rate, adequate relief of abnormal bowel habits",[2],91 (61) n (%)
same,Number of months a subject was a responder: One month (Abdominal pain/discomfort),[2],19 (13) n (%)
same,Number of months a subject was a responder: One month (Abnormal bowel habits),[2],18 (12) n (%)
same,Number of months a subject was a responder: One month (IBS symptoms),[2],18 (12) n (%)
same,Number of months a subject was a responder: Three months (Abdominal pain/discomfort),[2],56 (38) n (%)
same,Number of months a subject was a responder: Three months (Abnormal bowel habits),[2],60 (41) n (%)
same,Number of months a subject was a responder: Three months (IBS symptoms),[2],54 (36) n (%)
same,Number of months a subject was a responder: Two months (Abdominal pain/discomfort),[2],29 (20) n (%)
same,Number of months a subject was a responder: Two months (Abnormal bowel habits),[2],29 (20) n (%)
same,Number of months a subject was a responder: Two months (IBS symptoms),[2],29 (20) n (%)
same,Number of months a subject was a responder: Zero months (Abdominal pain/discomfort),[2],44 (30) n (%)
same,Number of months a subject was a responder: Zero months (Abnormal bowel habits),[2],41 (28) n (%)
same,Number of months a subject was a responder: Zero months (IBS symptoms),[2],47 (32) n (%)
same,"Number of months a subject was a responder during Months 1 to 3: Abdominal pain/discomfort, One month",[3],14 (15) n (%)
same,"Number of months a subject was a responder during Months 1 to 3: Abdominal pain/discomfort, Three months",[3],37 (39) n (%)
same,"Number of months a subject was a responder during Months 1 to 3: Abdominal pain/discomfort, Two months",[3],19 (20) n (%)
same,"Number of months a subject was a responder during Months 1 to 3: Abdominal pain/discomfort, Zero months",[3],26 (27) n (%)
same,"Number of months a subject was a responder during Months 1 to 3: Abnormal bowel habits, One month",[3],11 (11) n (%)
same,"Number of months a subject was a responder during Months 1 to 3: Abnormal bowel habits, Three months",[3],36 (38) n (%)
same,"Number of months a subject was a responder during Months 1 to 3: Abnormal bowel habits, Two months",[3],25 (26) n (%)
same,"Number of months a subject was a responder during Months 1 to 3: Abnormal bowel habits, Zero months",[3],24 (25) n (%)
